Reference: patent US11046658B2, “Aminopyrazine derivatives as PI3K-γ inhibitors” (Incyte Corporation, priority 2018, dated 2021)
Where a name gives a salt, the structure may show the parent alone. Read-outs that look alike come from different tables or passages of the source. One block for each compound: values may come before it.

What was measured:
[1] = target: PI3Kδ (p110δ/p85α) Recombinant Human Protein (Homo sapiens (Human), UniProt O00329); test: PI3Kδ Scintillation Proximity Assay; assay type: biochemical; conditions: 2 μM ATP, 20 μM PIP2
Chain of PI3Kδ (p110δ/p85α) Recombinant Human Protein (O00329 whole entry): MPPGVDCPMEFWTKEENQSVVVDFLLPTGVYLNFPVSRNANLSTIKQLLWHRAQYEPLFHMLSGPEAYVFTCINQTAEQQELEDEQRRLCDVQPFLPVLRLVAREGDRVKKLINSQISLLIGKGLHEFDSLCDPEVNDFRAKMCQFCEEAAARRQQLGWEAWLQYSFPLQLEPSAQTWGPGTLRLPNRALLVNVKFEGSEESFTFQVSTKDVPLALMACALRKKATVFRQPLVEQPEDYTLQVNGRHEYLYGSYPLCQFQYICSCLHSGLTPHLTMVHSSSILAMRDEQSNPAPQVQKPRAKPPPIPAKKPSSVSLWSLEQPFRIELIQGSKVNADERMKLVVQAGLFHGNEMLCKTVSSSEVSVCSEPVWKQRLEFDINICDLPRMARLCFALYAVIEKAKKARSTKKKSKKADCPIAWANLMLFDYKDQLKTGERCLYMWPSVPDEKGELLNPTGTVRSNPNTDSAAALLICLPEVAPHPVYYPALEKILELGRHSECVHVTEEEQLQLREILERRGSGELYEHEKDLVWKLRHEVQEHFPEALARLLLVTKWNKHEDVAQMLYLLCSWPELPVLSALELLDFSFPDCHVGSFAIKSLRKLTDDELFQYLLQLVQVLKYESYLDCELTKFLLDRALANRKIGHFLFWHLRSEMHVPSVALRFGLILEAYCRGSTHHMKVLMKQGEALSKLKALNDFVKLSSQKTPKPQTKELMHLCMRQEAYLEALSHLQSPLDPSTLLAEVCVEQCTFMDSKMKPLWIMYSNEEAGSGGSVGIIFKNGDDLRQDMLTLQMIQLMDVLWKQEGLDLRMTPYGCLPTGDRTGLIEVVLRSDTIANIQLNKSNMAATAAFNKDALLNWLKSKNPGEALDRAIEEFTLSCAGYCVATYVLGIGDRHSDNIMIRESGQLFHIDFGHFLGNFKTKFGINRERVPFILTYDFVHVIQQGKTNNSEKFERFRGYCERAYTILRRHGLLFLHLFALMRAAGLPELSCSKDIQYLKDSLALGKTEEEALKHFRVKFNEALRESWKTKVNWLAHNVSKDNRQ
Chain of PI3Kδ (p110δ/p85α) Recombinant Human Protein (P27986 whole entry partner): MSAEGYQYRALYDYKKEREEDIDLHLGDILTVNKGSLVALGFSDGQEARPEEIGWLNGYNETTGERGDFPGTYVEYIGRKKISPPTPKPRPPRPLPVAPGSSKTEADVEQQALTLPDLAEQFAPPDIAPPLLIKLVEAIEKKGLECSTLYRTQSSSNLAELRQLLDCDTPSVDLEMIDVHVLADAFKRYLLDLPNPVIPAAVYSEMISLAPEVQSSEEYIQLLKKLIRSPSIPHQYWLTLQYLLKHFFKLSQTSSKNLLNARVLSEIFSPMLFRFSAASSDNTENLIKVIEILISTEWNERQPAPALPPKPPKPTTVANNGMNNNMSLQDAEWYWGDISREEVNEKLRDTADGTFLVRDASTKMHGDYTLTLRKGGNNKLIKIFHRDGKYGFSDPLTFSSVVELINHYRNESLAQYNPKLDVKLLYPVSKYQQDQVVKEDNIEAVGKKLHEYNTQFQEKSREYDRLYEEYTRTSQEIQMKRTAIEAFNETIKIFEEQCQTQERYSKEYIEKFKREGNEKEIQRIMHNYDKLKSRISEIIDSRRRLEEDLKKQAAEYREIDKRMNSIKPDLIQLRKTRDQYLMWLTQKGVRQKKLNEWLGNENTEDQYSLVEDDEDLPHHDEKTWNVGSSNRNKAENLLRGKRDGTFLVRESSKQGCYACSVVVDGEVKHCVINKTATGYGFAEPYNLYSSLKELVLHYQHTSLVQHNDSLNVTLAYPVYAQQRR
Description: Materials: [γ-^33P]ATP (10 mCi/mL) and Wheat Germ Agglutinin (WGA) YSi SPA Scintillation Beads was purchased from Perkin Elmer (Waltham, Mass.). Lipid kinase substrate, D-myo-Phosphatidylinositol 4,5-bisphosphate (PtdIns(4,5)P2)D (+)-sn-1,2-di-O-octanoylglyceryl, 3-O-phospho linked (PIP2), CAS 204858-53-7, was purchased from Echelon Biosciences (Salt Lake City, Utah). PI3Kδ (p110δ/p85α) Recombinant Human Protein was purchased from Eurofins (St Charles, Mo.). ATP, MgCl2, DTT, EDTA, MOPS and CHAPS were purchased from Sigma Aldrich (St. Louis, Mo.).
The kinase reaction was conducted in polystyrene 384-well Greiner Bio-one white plate from Thermo Fisher Scientific in a final volume of 25 μL. Inhibitors were first diluted serially in DMSO and added to the plate wells before the addition of other reaction components. The final concentration of DMSO in the assay was 2%. The PI3Kδ assay was carried out at room temperature in 20 mM MOPS, pH 6.7, 10 mM MgCl2, 5 mM DTT and CHAPS 0.03%. Reactions were initiated by the addition of ATP, the final reaction mixture consisted of 20 μM PIP2, 2 μM ATP, 0.5 μCi [γ-^33P] ATP, 3.4 nM PI3Kδ. Reactions were incubated for 120 min and terminated by the addition of 40 μL SPA beads suspended in quench buffer: 163 mM potassium phosphate pH 7.8, 20% glycerol, 25 mM EDTA. The final concentration of SPA beads is 1.0 mg/mL. After the plate sealing, plates were shaken overnight at room temperature and centrifuged at 1500 rpm for 10 min, the radioactivity of the product was determined by scintillation counting on Topcount (PerkinElmer). IC50 determination was performed by fitting the curve of percent of the solvent control activity versus the log of the inhibitor concentration using the GraphPad Prism 6.0 software.

[2] = tested on: Phosphorylated Ribosomal Protein S6 (RPS6) in THP-1 cells; test: THP-1 RPS6 ELISA Assay; assay type: cell-based, Human; conditions: THP-1 cells, 10 nM MCP-1, read-out: PI3Kγ_THP1_RPS6_ELISA IC50
Summary of the method: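 Cells serum-starved overnight, pre-incubated with compounds 2 h at 37° C, then stimulated with 10 nM MCP-1 for 15 min. Lysates assayed for phospho-RPS6 by ELISA read at 450 nm. IC50 from percent inhibition vs log concentration curve fit.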

[3] = Homo sapiens, Table A4, cells given with + symbol

SMILES: Cc1ccc(C(O)(C(N)=O)C(F)(F)F)cc1-c1cnc(N)c(-c2ccc(C3CC3)cc2)n1 (centres unmarked) [Example 92, 2-(3-(5-amino-6-(4-cyclopropylphenyl)pyrazin-2-yl)-4-methylphenyl)-3,3,3-trifluoro-2-hydroxypropanamide trifluoroacetate]
- IC50 ([1]; Table A3): < 500 nM
- IC50 ([2]; Homo sapiens, Table A3): < 500 nM

- IC50 ([1]; Table A4): < 500 nM
- IC50 ([2]; Homo sapiens, Table A4): < 1000 nM
SMILES: Cc1ccc(C(O)(C(N)=O)C(F)(F)F)cc1-c1cnc(N)c(N2CCN(c3ccccc3C)CC2)n1 (centres unmarked) [Example 118, 2-(3-(5-amino-6-(4-o-tolylpiperazin-1-yl)pyrazin-2-yl)-4-methylphenyl)-3,3,3-trifluoro-2-hydroxypropanamide trifluoroacetate]

- IC50 ([1]; Table A4): < 500 nM
- IC50 ([2]; Homo sapiens, Table A4): > 1000 nM
SMILES: Cc1ccc(C)c(N2CCN(c3nc(-c4cc(C(O)(C(N)=O)C(F)(F)F)ccc4C)cnc3N)CC2)c1 (centres unmarked) [Example 119, 2-(3-(5-amino-6-(4-(2,5-dimethylphenyl)piperazin-1-yl)pyrazin-2-yl)-4-methylphenyl)-3,3,3-trifluoro-2-hydroxypropanamide trifluoroacetate]

- IC50 ([1]; Table A1): < 500 nM
- IC50 ([2]; Homo sapiens, Table A1): > 1000 nM
SMILES: Cc1ccc(C(O)(CNC(=O)C(C)(C)O)C(F)(F)F)cc1-c1cnc(N)c(C(=O)NC(C)C)n1 (centres unmarked) [Example 41, 3-Amino-N-isopropyl-6-(2-methyl-5-(1,1,1-trifluoro-2-hydroxy-3-(2-hydroxy-2-methylpropanamido)propan-2-yl)phenyl)pyrazine-2-carboxamide trifluoroacetate]

- IC50 ([1]; Table A3): < 500 nM
- IC50 ([2]; Homo sapiens, Table A3): < 100 nM
SMILES: CNC(=O)C(O)(c1ccc(C)c(-c2cnc(N)c(-c3cnn(C)c3)n2)c1)C(F)(F)F (centres unmarked) [Example 96, 2-(3-(5-Amino-6-(1-methyl-1H-pyrazol-4-yl)pyrazin-2-yl)-4-methylphenyl)-3,3,3-trifluoro-2-hydroxy-N-methylpropanamide]

SMILES: CNC(=O)c1ccc(-c2nc(-c3cc(C(O)(C(N)=O)C(F)(F)F)ccc3C)cnc2N)cn1 (centres unmarked) [Example 80, 5-(3-amino-6-(5-(3-amino-1,1,1-trifluoro-2-hydroxy-3-oxopropan-2-yl)-2-methylphenyl)pyrazin-2-yl)-N-methylpicolinamide bistrifluoroacetate]
- IC50 ([1]; Table A3): < 500 nM
- IC50 ([2]; Homo sapiens, Table A3): < 1000 nM

- IC50 ([1]; Table A1): < 500 nM
- IC50 ([2]; Homo sapiens, Table A1): < 100 nM
SMILES: Cc1ccc(C(O)(C(N)=O)C(F)(F)F)cc1-c1cnc(N)c(C(=O)N2CCc3cccnc32)n1 (centres unmarked) [Example 28, 2-(3-(5-amino-6-(2,3-dihydro-1H-pyrrolo[2,3-b]pyridine-1-carbonyl)pyrazin-2-yl)-4-methylphenyl)-3,3,3-trifluoro-2-hydroxypropanamide]

- IC50 ([1]; Table A2): < 500 nM
SMILES: C/C=C\c1nc(-c2cc(C(O)(C(N)=O)C(F)(F)F)ccc2C)cnc1N (centres unmarked) [Example 44, (Z)-2-(3-(5-amino-6-(prop-1-en-1-yl)pyrazin-2-yl)-4-methylphenyl)-3,3,3-trifluoro-2-hydroxypropanamide]

- IC50 ([1]; Table A2): < 500 nM
SMILES: Cc1ccc(C(O)(C(N)=O)C(F)(F)F)cc1-c1cnc(N)c(C(F)(F)F)n1 (centres unmarked) [Example 46, 2-(3-(5-Amino-6-(trifluoromethyl)pyrazin-2-yl)-4-methylphenyl)-3,3,3-trifluoro-2-hydroxypropanamide trifluoroacetate]

- IC50 ([2]; Table A1): < 100 nM
SMILES: Cc1ccc(C(O)(C(N)=O)C(F)(F)F)cc1-c1cnc(N)c(C(=O)NCC(O)C(F)(F)F)n1 (single isomer, unassigned) [Example 43B, 3-amino-6-(5-(3-amino-1,1,1-trifluoro-2-hydroxy-3-oxopropan-2-yl)-2-methylphenyl)-N-(3,3,3-trifluoro-2-hydroxypropyl)pyrazine-2-carboxamide]

- IC50 ([2]; Homo sapiens, Table A2): < 100 nM
SMILES: Cc1ccc(C(O)(C(N)=O)C(F)(F)F)cc1-c1cnc(N)c(C#CC2CCOCC2)n1 (centres unmarked) [Example 63, 2-(3-(5-amino-6-((tetrahydro-2H-pyran-4-yl)ethynyl)pyrazin-2-yl)-4-methylphenyl)-3,3,3-trifluoro-2-hydroxypropanamide]

- IC50 ([2]; Homo sapiens, Table A2): < 500 nM
SMILES: Cc1ccc(C(O)(C(N)=O)C(F)(F)F)cc1-c1cnc(N)c(C#Cc2ccn[nH]2)n1 (centres unmarked) [Example 52, 2-(3-(6-((1H-pyrazol-5-yl)ethynyl)-5-aminopyrazin-2-yl)-4-methylphenyl)-3,3,3-trifluoro-2-hydroxypropanamide]

- IC50 ([2]; Homo sapiens, Table A1): < 500 nM
SMILES: CC(=O)NCC(O)(c1ccc(C)c(-c2cnc(N)c(C(=O)NC(C)C)n2)c1)C(F)(F)F (centres unmarked) [Example 39, 6-(5-(3-Acetamido-1,1,1-trifluoro-2-hydroxypropan-2-yl)-2-methylphenyl)-3-amino-N-isopropylpyrazine-2-carboxamide trifluoroacetate]

- IC50 [2, 3]: < 100 nM
SMILES: Cc1ccc(C(O)(C(N)=O)C(F)(F)F)cc1-c1cnc(N)c(N2CCN(c3cncs3)CC2)n1 (centres unmarked) [Example 120, 2-(3-(5-amino-6-(4-(thiazol-5-yl)piperazin-1-yl)pyrazin-2-yl)-4-methylphenyl)-3,3,3-trifluoro-2-hydroxypropanamide trifluoroacetate]

- IC50 [2, 3]: < 100 nM
SMILES: Cc1ccc([C@@](O)(C(N)=O)C(F)(F)F)cc1-c1cnc(N)c(N2CCN(C(=O)C3CC3)CC2)n1 [Example 115, (R)-2-(3-(5-amino-6-(4-(cyclopropanecarbonyl)piperazin-1-yl)pyrazin-2-yl)-4-methylphenyl)-3,3,3-trifluoro-2-hydroxypropanamide trifluoroacetate]

- IC50 ([2]; Homo sapiens, Table A1): < 100 nM
SMILES: COC(C)(C)CNC(=O)c1nc(-c2cc(C(O)(C(N)=O)C(F)(F)F)ccc2C)cnc1N (centres unmarked) [Example 21, 3-amino-6-(5-(3-amino-1,1,1-trifluoro-2-hydroxy-3-oxopropan-2-yl)-2-methylphenyl)-N-(2-methoxy-2-methylpropyl)pyrazine-2-carboxamide trifluoroacetate]

- IC50 ([2]; Homo sapiens, Table A1): < 100 nM
SMILES: Cc1ccc(C(O)(C(N)=O)C(F)(F)F)cc1-c1cnc(N)c(C(=O)NCC(C)(C)C#N)n1 (centres unmarked) [Example 15, 3-amino-6-(5-(3-amino-1,1,1-trifluoro-2-hydroxy-3-oxopropan-2-yl)-2-methylphenyl)-N-(2-cyano-2-methylpropyl)pyrazine-2-carboxamide trifluoroacetate]

- IC50 ([2]; Homo sapiens, Table A3): < 100 nM
SMILES: CNC(=O)C(O)(c1ccc(C)c(-c2cnc(N)c(-n3cncn3)n2)c1)C(F)(F)F (centres unmarked) [Example 94, 2-(3-(5-Amino-6-(1H-1,2,4-triazol-1-yl)pyrazin-2-yl)-4-methylphenyl)-3,3,3-trifluoro-2-hydroxy-N-methylpropanamide trifluoroacetate]

- IC50 ([2]; Homo sapiens, Table A1): < 100 nM
SMILES: Cc1ccc(C(O)(C(N)=O)C(F)(F)F)cc1-c1cnc(N)c(C(=O)NC23CC(C#N)(C2)C3)n1 (centres unmarked) [Example 23, 3-amino-6-(5-(3-amino-1,1,1-trifluoro-2-hydroxy-3-oxopropan-2-yl)-2-methylphenyl)-N-(3-cyanobicyclo[1.1.1]pentan-1-yl)pyrazine-2-carboxamide trifluoroacetate]

- IC50 ([2]; Homo sapiens, Table A2): < 500 nM
SMILES: Cc1ccc(C(O)(C(N)=O)C(F)(F)F)cc1-c1cnc(N)c(C#Cc2cncn2C)n1 (centres unmarked) [Example 53, 2-(3-(5-amino-6-((1-methyl-1H-imidazol-5-yl)ethynyl)pyrazin-2-yl)-4-methylphenyl)-3,3,3-trifluoro-2-hydroxypropanamide]

- IC50 ([2]; Homo sapiens, Table A1): < 500 nM
SMILES: COC[C@H]1CCN1C(=O)c1nc(-c2cc(C(O)(C(N)=O)C(F)(F)F)ccc2C)cnc1N (stereo partly drawn) [Example 26, 2-(3-(5-amino-6-((R)-2-(methoxymethyl)azetidine-1-carbonyl)pyrazin-2-yl)-4-methylphenyl)-3,3,3-trifluoro-2-hydroxypropanamide]

- IC50 ([2]; Homo sapiens, Table A3): < 100 nM
SMILES: Cc1ccc(C(O)(CNC=O)C(F)(F)F)cc1-c1cnc(N)c(-c2cnc(C3CC3)s2)n1 (centres unmarked) [Example 102, N-(2-(3-(5-amino-6-(2-cyclopropylthiazol-5-yl)pyrazin-2-yl)-4-methylphenyl)-3,3,3-trifluoro-2-hydroxypropyl)formamide trifluoroacetate]
